pEC50, pIC50: −log10 of the molar value.
Columns and labels:
[1] = target: PRMT5/MEP50 complex (Homo sapiens, UniProt O14744); test: Inhibition of recombinant human fetal brain FLAG-tagged PRMT5/full length human testis 6His-tagged MEP50 expressed in baculovirus infected insect Sf9 cells using human histone H4 (1 to 15 residues) as substrate preincubated for 30 mins followed by [3H]-SAM addition
[2] = target: Protein arginine N-methyltransferase 5 (Homo sapiens, UniProt O14744); test: Inhibition of PRMT5 in human Z138 cells assessed as decrease in di-methyl arginine levels after 96 hrs by Western blot method; type: cell-based
[3] = Antiproliferative activity against human Z138 cells assessed as inhibition of cell viability after 5 days by Cell-Titer Glo assay; type: functional, cell-based; settings: Z-138, 120 h

Sequence of PRMT5/MEP50 complex (O14744 whole entry, the tested form may be a part): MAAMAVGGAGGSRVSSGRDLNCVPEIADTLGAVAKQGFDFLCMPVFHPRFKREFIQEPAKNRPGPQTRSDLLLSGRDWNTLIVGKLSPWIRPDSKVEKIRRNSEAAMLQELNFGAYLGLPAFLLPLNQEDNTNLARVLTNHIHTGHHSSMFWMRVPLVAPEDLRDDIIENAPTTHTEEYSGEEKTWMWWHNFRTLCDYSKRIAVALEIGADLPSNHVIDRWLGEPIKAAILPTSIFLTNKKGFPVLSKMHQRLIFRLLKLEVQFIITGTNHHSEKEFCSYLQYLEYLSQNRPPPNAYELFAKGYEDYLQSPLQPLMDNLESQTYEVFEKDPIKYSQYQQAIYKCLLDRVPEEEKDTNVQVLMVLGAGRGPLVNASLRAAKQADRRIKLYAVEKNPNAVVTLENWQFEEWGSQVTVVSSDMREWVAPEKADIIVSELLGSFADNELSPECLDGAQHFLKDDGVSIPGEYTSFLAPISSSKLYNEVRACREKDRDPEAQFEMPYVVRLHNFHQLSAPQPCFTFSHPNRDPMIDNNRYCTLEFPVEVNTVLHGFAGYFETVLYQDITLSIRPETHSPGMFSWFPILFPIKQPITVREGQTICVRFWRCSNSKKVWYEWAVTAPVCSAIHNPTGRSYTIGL
Sequence of PRMT5/MEP50 complex (Q9BQA1 whole entry, further chain, the tested form may be a part): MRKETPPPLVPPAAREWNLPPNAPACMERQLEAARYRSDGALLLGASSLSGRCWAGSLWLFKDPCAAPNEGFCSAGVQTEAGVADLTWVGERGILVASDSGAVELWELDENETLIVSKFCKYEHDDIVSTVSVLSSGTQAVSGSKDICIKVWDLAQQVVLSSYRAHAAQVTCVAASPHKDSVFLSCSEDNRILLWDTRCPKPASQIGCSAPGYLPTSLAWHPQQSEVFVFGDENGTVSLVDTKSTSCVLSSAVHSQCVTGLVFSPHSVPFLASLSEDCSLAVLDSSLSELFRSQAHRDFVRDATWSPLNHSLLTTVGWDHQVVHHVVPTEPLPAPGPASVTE
Sequence of Protein arginine N-methyltransferase 5 (O14744 whole entry): as the sequence (O14744 whole entry, the tested form may be a part) above

pIC50 [1]	pEC50 [2]	Compound	pEC50 [3]
6.00 to 7.00	5.00 to 6.00	OC(COc1cccc(-c2ccccc2F)c1)CN1CCc2ccccc2C1 (stereo not given)	
5.00 to 6.00	5.00 to 6.00	O=C(Nc1cccc(OCC(O)CN2CCc3ccccc3C2)c1)c1cccnn1 (stereo not given)	
6.00 to 7.00	6.00 to 7.00	OC(COc1cccc(-c2ccc3ncn(C4CCOCC4)c3c2)c1)CN1CCc2ccccc2C1 (stereo not given)	5.00 to 6.00
6.00 to 7.00	6.00 to 7.00	Cn1cnc2ccc(-c3ccnc(NCC(O)CN4CCc5ccccc5C4)n3)cc21 (stereo not given)	5.00 to 6.00
6.00 to 7.00	6.00 to 7.00	Cc1ccccc1OCC(=O)NCC(O)CN1CCc2ccccc2C1 (stereo not given)	5.00 to 6.00
> 7.00	6.00 to 7.00	O=C(COc1ccc2c(cnn2C2CCNC2)c1)NCC(O)CN1CCc2ccccc2C1 (stereo not given)	4.30 to 5.00
6.00 to 7.00	5.00 to 6.00	OC(COc1cccc(-c2ccc3ncn(-c4ccccc4)c3c2)c1)CN1CCc2ccccc2C1 (stereo not given)	< 4.70
> 7.00	6.00 to 7.00	CN1CCN(Cc2cccc(C(=O)NCC(O)CN3CCc4ccccc4C3)c2)CC1 (stereo not given)	5.00 to 6.00
> 7.00	6.00 to 7.00	C[C@H](Oc1cccc2cccnc12)C(=O)NC[C@H](O)CN1CCc2ccccc2C1	5.00 to 6.00
6.00 to 7.00	5.00 to 6.00	OC(CNc1cccc(CNC2CCCC2)c1)CN1CCc2ccccc2C1 (stereo not given)	< 4.70
6.00 to 7.00	5.00 to 6.00	CC(=O)c1cccc(-c2cccc(OCC(O)CN3CCc4ccccc4C3)c2)c1 (stereo not given)	4.40 to 5.00
6.00 to 7.00	5.00 to 6.00	O=C(NCC(O)CN1CCc2ccccc2C1)c1cccc(C2CCCN2)c1 (stereo not given)	< 4.70
6.00 to 7.00	6.00 to 7.00	NS(=O)(=O)c1cccc(C(=O)NCC(O)CN2CCc3ccccc3C2)c1 (stereo not given)	< 4.70
6.00 to 7.00	5.00 to 6.00	O[C@H](COc1cccc(-c2cccc3cccnc23)c1)CN1CCc2ccccc2C1	< 4.70
> 7.00	6.00 to 7.00	O=C(NCC(O)CN1CCc2ccccc2C1)c1cccc(CNC2CCOCC2)c1 (stereo not given)	4.30 to 5.00
6.00 to 7.00	5.00 to 6.00	Cn1ccnc1-c1ccccc1OCC(=O)NCC(O)CN1CCc2ccccc2C1 (stereo not given)	
> 7.00	6.00 to 7.00	CC(=O)N(CC(O)CN1CCc2ccccc2C1)c1cccc(-c2ccc3ncn(C)c3c2)c1 (stereo not given)	4.40 to 5.00
5.00 to 6.00	4.40 to 5.00	OC(COc1cccc(-c2ccc3cnoc3c2)c1)CN1CCc2ccccc2C1 (stereo not given)	< 4.70
5.00 to 6.00	5.00 to 6.00	O=C(Nc1cccc(OCC(O)CN2CCc3ccccc3C2)c1)c1cccnc1 (stereo not given)	
> 7.00	6.00 to 7.00	O=C(COc1cccc2c1CCNC2)NCC(O)CN1CCc2ccccc2C1 (stereo not given)	5.00 to 6.00
> 7.00	6.00 to 7.00	CN1CCC(c2cccc(C(=O)NCC(O)CN3CCc4ccccc4C3)c2)C1 (stereo not given)	4.30 to 5.00
> 7.00	6.00 to 7.00	Cn1cnc2ccc(-c3cccc(NCC(O)CN4CCc5ccccc5C4)c3)cc21 (stereo not given)	5.00 to 6.00
> 7.00	6.00 to 7.00	CN1CC(n2cnc3ccc(-c4cccc(OCC(O)CN5CCc6ccccc6C5)c4)cc32)C1 (stereo not given)	5.00 to 6.00
> 7.00	6.00 to 7.00	O=C1CN(c2ccc(Cl)cc2)CCN1CC(O)CN1CCc2ccccc2C1 (stereo not given)	4.30 to 5.00
6.00 to 7.00	5.00 to 6.00	OC(COc1cccc(-c2ccc3c(c2)OCCO3)c1)CN1CCc2ccccc2C1 (stereo not given)	4.40 to 5.00
6.00 to 7.00	5.00 to 6.00	COc1ccc(Cl)cc1-c1cccc(OCC(O)CN2CCc3ccccc3C2)c1 (stereo not given)	< 4.70

pIC50 [1]	pEC50 [2]	Compound	pEC50 [3]
6.00 to 7.00	5.00 to 6.00	CS(=O)(=O)c1cccc(-c2cccc(OCC(O)CN3CCc4ccccc4C3)c2)c1 (stereo not given)	< 4.70
> 7.00	> 7.00	CS(=O)(=O)N1CCc2c(cccc2OCC(=O)NCC(O)CN2CCc3ccccc3C2)C1 (stereo not given)	5.00 to 6.00
6.00 to 7.00	6.00 to 7.00	CN1CCN(C(=O)Cn2cnc3ccc(-c4cccc(OCC(O)CN5CCc6ccccc6C5)c4)cc32)CC1 (stereo not given)	4.40 to 5.00
> 7.00	5.00 to 7.00	Cn1cnc2ccc(-c3cccc(OCC(O)CN4CCc5ccccc5C4)c3)cc21 (stereo not given)	4.70 to 6.00
6.00 to 7.00	6.00 to 7.00	CN(C)c1ccc(OCC(=O)NCC(O)CN2CCc3ccccc3C2)cc1 (stereo not given)	4.30 to 5.00
> 7.00	> 7.00	Cn1ncc2c(OCC(=O)NCC(O)CN3CCc4ccccc4C3)cccc21 (stereo not given)	5.00 to 6.00
> 7.00	> 7.00	COc1ccc2cccc(OCC(=O)NC[C@@H](O)CN3CCc4ccccc4C3)c2n1	5.00 to 6.00
> 7.00	6.00 to 7.00	CN1CCc2c(cccc2OCC(=O)NCC(O)CN2CCc3ccccc3C2)C1 (stereo not given)	5.00 to 6.00
6.00 to 7.00	6.00 to 7.00	O=C(COc1ccccc1F)NCC(O)CN1CCc2ccccc2C1 (stereo not given)	4.30 to 5.00
6.00 to 7.00	5.00 to 6.00	O=C(Cc1cccc2cccnc12)NCC(O)CN1CCc2ccccc2C1 (stereo not given)	
6.00 to 7.00	< 4.70	COc1cc(Cl)cc(-c2cccc(OCC(O)CN3CCc4ccccc4C3)c2)c1 (stereo not given)	
	< 4.30	O=C1CN(c2ccccc2F)CCN1CC(O)CN1CCc2ccccc2C1 (stereo not given)	
	< 4.30	O=c1cc(-c2ccccc2)ccn1C[C@H](O)CN1CCc2ccccc2C1	
6.00 to 7.00	5.00 to 6.00	CN(C)CCOc1ccccc1OCC(=O)NC[C@@H](O)CN1CCc2ccccc2C1	
6.00 to 7.00	6.00 to 7.00	CCN(c1cccc(C(=O)NCC(O)CN2CCc3ccccc3C2)c1)C1CCOCC1 (stereo not given)	
6.00 to 7.00	6.00 to 7.00	O=C(COc1ccccc1)NCC(O)CN1CCc2ccccc2C1 (stereo not given)	
6.00 to 7.00	< 4.70	Cn1cc2ccc(-c3cccc(OCC(O)CN4CCc5ccccc5C4)c3)cc2n1 (stereo not given)	
5.00 to 6.00	5.00 to 6.00	CN1CCN(c2ccccc2OCC(=O)NC[C@@H](O)CN2CCc3ccccc3C2)CC1	
6.00 to 7.00	5.00 to 6.00	Cn1cnc2ccc(NCC(=O)NCC(O)CN3CCc4ccccc4C3)cc21 (stereo not given)	
6.00 to 7.00	6.00 to 7.00	O=C(COc1ccccc1N1CCOCC1)NC[C@@H](O)CN1CCc2ccccc2C1	
	< 4.30	O=c1cc(-c2ccccc2)ccn1C[C@@H](O)CN1CCc2ccccc2C1	
6.00 to 7.00	5.00 to 6.00	O=C1CN(c2ccc(CO)cc2)CCN1CC(O)CN1CCc2ccccc2C1 (stereo not given)	
> 7.00	6.00 to 7.00	O=C(COc1ccccc1S(=O)(=O)N1CCOCC1)NCC(O)CN1CCc2ccccc2C1 (stereo not given)	
	< 4.30	Cc1ccccc1N1CCN(CC(O)CN2CCc3ccccc3C2)C(=O)C1 (stereo not given)	
6.00 to 7.00	5.00 to 6.00	CC(C)(C)OC(=O)Nc1cccc(C(=O)NCC(O)CN2Cc3ccccc3C2)c1 (stereo not given)	
> 7.00	6.00 to 7.00	O=C(NCC(O)CN1CCc2ccccc2C1)c1cccc(NC2CCOC2)c1 (stereo not given)	

pIC50 [1]	pEC50 [2]	Compound	pEC50 [3]
5.00 to 6.00		OC(COCC1CC1)CN1CCc2ccccc2C1 (stereo not given)	< 4.40
6.00 to 7.00	6.00 to 7.00	O=C(NCC(O)CN1CCc2ccccc2C1)c1cccc(OC2CCOCC2)c1 (stereo not given)	
6.00 to 7.00	6.00 to 7.00	CS(=O)(=O)c1ccccc1OCC(=O)NCC(O)CN1Cc2ccccc2C1 (stereo not given)	
< 4.40		OC(COCC1CCNC1)CN1CCc2ccccc2C1 (stereo not given)	< 4.40
> 7.00	5.00 to 6.00	O=C1CN(c2cccc(Cl)c2)CCN1CC(O)CN1CCc2ccccc2C1 (stereo not given)	
6.00 to 7.00	6.00 to 7.00	Cn1nccc1-c1cccc(CC(=O)NCC(O)CN2CCc3ccccc3C2)c1 (stereo not given)	
6.00 to 7.00	6.00 to 7.00	O=C(NCC(O)CN1Cc2ccccc2C1)c1cccc(NC2CCOCC2)c1 (stereo not given)	
4.40 to 5.00		CC(OCC(O)CN1CCc2ccccc2C1)c1cccnc1 (stereo not given)	< 4.40
6.00 to 7.00		OC(COc1cccc(CNC2CCCC2)c1)CN1CCc2ccccc2C1 (stereo not given)	4.40 to 5.00
	6.00 to 7.00	Cn1cnc2ccc(OCC(=O)NCC(O)CN3CCc4ccccc4C3)cc21 (stereo not given)	4.30 to 5.00
4.40 to 5.00		OC(COCC1CCCO1)CN1CCc2ccccc2C1 (stereo not given)	< 4.40
5.00 to 6.00		OC(COC1CCN(Cc2ccccc2)CC1)CN1CCc2ccccc2C1 (stereo not given)	< 4.40
6.00 to 7.00	5.00 to 6.00	N#CCc1cccc(-c2cccc(OCC(O)CN3CCc4ccccc4C3)c2)c1 (stereo not given)	
5.00 to 6.00		OC(COC1CCCCCC1)CN1CCc2ccccc2C1 (stereo not given)	< 4.40
< 4.40		CN1CCCCC1COCC(O)CN1CCc2ccccc2C1 (stereo not given)	< 4.40
> 7.00	6.00 to 7.00	Cc1cn(C)c2cccc(OCC(=O)NCC(O)CN3CCc4ccccc4C3)c12 (stereo not given)	
5.00 to 6.00		CC(C)(C)OC(=O)N1CCCC(OCC(O)CN2CCc3ccccc3C2)C1 (stereo not given)	< 4.40
6.00 to 7.00		CCCCNCc1cccc(COCC(O)CN2CCc3ccccc3C2)c1 (stereo not given)	< 4.70
< 4.40		OC(COC1CCNCC1)CN1CCc2ccccc2C1 (stereo not given)	< 4.40
5.00 to 6.00		CC(C)(C)OC(=O)N1CC(OCC(O)CN2CCc3ccccc3C2)C1 (stereo not given)	< 4.40
5.00 to 6.00		CC(C)n1ccc(-c2ccc(OCC(O)CN3CCc4ccccc4C3)cc2)n1 (stereo not given)	< 4.40
< 4.40		CN1CCC(OCC(O)CN2CCc3ccccc3C2)CC1 (stereo not given)	< 4.40
4.40 to 5.00		CC(C)n1nccc1-c1ccc(OCC(O)CN2CCc3ccccc3C2)cc1 (stereo not given)	< 4.40
5.00 to 6.00		CN(Cc1ccc(OCC(O)CN2CCc3ccccc3C2)cc1)C1CCCC1 (stereo not given)	< 4.40
5.00 to 6.00		O[C@@H](COc1cccc(CNC2CCCC2)c1)CN1CCc2ccccc2C1	4.40 to 5.00
5.00 to 6.00		CC(C(O)COc1cccc(CNC2CCCC2)c1)N1CCc2ccccc2C1 (stereo not given)	< 4.40

Compound	pIC50 [1]	pEC50 [2]	pEC50 [3]
O=C(NC[C@@H](O)CN1CCc2ccccc2C1)Oc1ccccc1	> 7.00	5.00 to 6.00	

From ChEMBL document CHEMBL3879915, “Methods of inhibiting PRMT5” (2014)
